Data published in patent publication US8871788B2, “Substituted N-alkyl and N-acyl tetrahydro-isoquinoline derivatives, preparation and therapeutic use thereof” (Sanofi, priority 2010, dated 2014).
Blank lines part the entries; values can stand above or below the compound they belong to.

Key:
[1] = target: T1, rhesus (Macacca Mulatta) H3 receptor (Macaca mulatta, UniProt Q865E1); test: Rhesus H3 [3H]-Methylhistamine radioligand binding assay (SPA); design: species or system rhesus monkey (Macacca Mulatta); conditions: [3H]-Methylhistamine 2 nM, rhesus H3 membranes, Cheng-Prusoff
T1 construct: 445 amino acid H3 receptor; expressed in transfected cells; host or cells: Flp-In T-REx 293 Cell Line (Invitrogen), pcDNA5/FRT/TO, induced with tetracycline
Method: (§1) Rhesus H3 membranes were prepared from the Flp-In T-REx 293 Cell Line (Invitrogen) stably transfected with pcDNA5/FRT/TO (Invitrogen) containing the rhesus monkey (Macacca Mulatta) 445 amino acid H3 receptor. (Genbank #AY231164). Stably transfected cultures were amplified in tissue culture flasks by standard tissue culture methods and induced to express rhesus H3 by exposure to 500 ng/ml tetracycline (Cellgro) for 24 hours. After induction, cells were dissociated from flasks utilizing Cell Stripper (Cellgro). Cells were centrifuged (1K×g, 5 min) and pellet frozen in an ethanol-dry ice bath to disrupt cell membranes. Frozen cell pellet was re-suspended in 5 mM HEPES (pH 7.4, Invitrogen) at 10 ml/1000 cm2 of harvested cells. The cell suspension was drawn through an 18 gauge needle (2-3×) followed by a 23 gauge needle (2-3×) to further disrupt cell membranes. The cell suspension was centrifuged (40K×g, 30 min). Cell membrane pellet was re-suspended in 5 mM HEPES (pH 7.4, Invitrogen) at a final protein concentration of 10 mg/ml. Rhesus H3 membranes were stored under liquid nitrogen prior to use in [3H]-Methylhistamine and GTPγS radioligand binding assays.
(§2) Rhesus H3 radioligand binding assay was performed using rhesus H3 receptor membranes (prepared as described above), [3H]-Methylhistamine (Perkin Elmer) and WGA SPA beads (wheat germ agglutinin scintillation proximity assay) beads (Amersham). The assay was performed in 96-well Opti-Plates (Packard). Each reaction contained 50 μl rhesus H3 membranes (20-30 μg total protein), 50 μl WGA SPA beads (0.1 μg) and 50 μl of 83Ci/mmol [^3H]-Methylhistamine (final concentration 2 nM) and 50 μl of tested compound. The compounds of this invention and/or vehicle were diluted with binding buffer from 10 mM DMSO stocks. Assay plates were sealed with TopSeal (Perkin Elmer) and mixed on shaker (25° C., 1 hour). Assay plates were read on TopCount scintillation counter (Packard). Results were analyzed by Hill transformation and Ki values were determined by Cheng-Prusoff equation. Similar procedure was employed to determine the binding data for rat.

Rat H3 = Rat H3 (Rattus norvegicus, UniProt Q9QYN8); test: Rat H3 radioligand binding (similar procedure); conditions: rat H3, similar procedure to rhesus binding
Method: as §2

Rats = test: Forced-Swimming Test in Rats; format: in vivo, rat; conditions: p.o. twice, 0.1, 1, and 10 mg/kg, 6-min test
Method: This example further illustrates the study of efficacy of the compounds of this invention as antidepressive agents in animal models.
The procedure was a modification of that described by Porsolt et al. (1977) Depression: a new animal model sensitive to antidepressant treatments. Nature 266:730-2. Rats were placed in individual glass cylinder (40 cm height, 18 cm diameter) containing water (22-25° C.) to a height of 15 cm. Two swimming sessions were conducted (a 15-min training session followed 24 h later by a 6-min test). After each swimming session, rats were placed under a heating lamp to avoid hypothermia. The duration of immobility was measured during the 6-min test. Example 1 of this invention was administered p.o. twice (15 min pre-test followed by first injection 24 h prior to […]) at three different dosages of 0.1, 1, and 10 mg/kg. The compound is active at all of these three dosage levels.

rhesus H3 = target: T2, rhesus H3 (Macaca mulatta, UniProt Q865E1); test: GTPγS radioligand binding assay, rhesus H3 constitutive functional activity in cell membranes; format: biochemical, rhesus monkey (Macacca Mulatta); conditions: relative to basal levels
T2 construct: 445 amino acid H3 receptor; expressed in transfected cells; host or cells: Flp-In T-REx 293 Cell Line (Invitrogen), pcDNA5/FRT/TO, induced with tetracycline
Method: as §1

Sequence of Rat H3 (Q9QYN8 whole entry): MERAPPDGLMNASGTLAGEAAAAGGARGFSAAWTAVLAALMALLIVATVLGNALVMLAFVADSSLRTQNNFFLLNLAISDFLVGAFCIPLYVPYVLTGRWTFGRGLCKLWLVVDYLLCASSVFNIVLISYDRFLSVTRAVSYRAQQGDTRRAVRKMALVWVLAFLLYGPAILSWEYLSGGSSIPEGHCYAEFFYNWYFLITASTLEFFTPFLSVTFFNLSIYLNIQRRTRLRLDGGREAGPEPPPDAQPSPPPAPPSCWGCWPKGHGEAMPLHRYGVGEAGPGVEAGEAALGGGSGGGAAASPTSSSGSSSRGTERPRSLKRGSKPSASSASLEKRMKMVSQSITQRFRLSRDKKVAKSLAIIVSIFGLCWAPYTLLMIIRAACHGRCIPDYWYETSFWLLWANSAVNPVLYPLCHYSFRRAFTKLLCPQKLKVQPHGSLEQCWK
T2 sequence (Q865E1 1-445): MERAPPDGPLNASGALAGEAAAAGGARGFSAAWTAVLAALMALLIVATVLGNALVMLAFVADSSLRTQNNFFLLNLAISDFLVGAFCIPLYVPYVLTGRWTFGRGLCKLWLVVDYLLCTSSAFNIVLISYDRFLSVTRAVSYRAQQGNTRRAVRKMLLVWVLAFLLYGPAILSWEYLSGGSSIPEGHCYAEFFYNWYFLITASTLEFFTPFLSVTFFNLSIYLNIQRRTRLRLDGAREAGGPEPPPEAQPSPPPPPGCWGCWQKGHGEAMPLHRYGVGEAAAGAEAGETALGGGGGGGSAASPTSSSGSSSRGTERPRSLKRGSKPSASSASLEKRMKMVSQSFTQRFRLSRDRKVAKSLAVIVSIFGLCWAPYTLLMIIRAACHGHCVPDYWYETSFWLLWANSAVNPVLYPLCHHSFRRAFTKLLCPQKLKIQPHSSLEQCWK
T1 sequence (Q865E1 1-445): as above

GTPγS-35 ASSAY % Inverse Agonism (rhesus H3): −16.8%
Ki [1]: 0.22 nM
Ki (Rat H3): 2.7 nM
Compound: C[C@H]1CCCN1[C@H]1CCN(c2ccc3c(c2)CCN(C(=O)c2ccoc2)C3)C1 [Example 15, Furan-3-yl-[6-((2S,3′S)-2-methyl-[1,3′]bipyrrolidinyl-1′-yl)-3,4-dihydro-1H-isoquinolin-2-yl]-methanone]

GTPγS-35 ASSAY % Inverse Agonism (rhesus H3): −17.4%
Ki [1]: 0.12 nM
Ki (Rat H3): 0.22 nM
Compound: C[C@H]1CCCN1[C@H]1CCN(c2ccc3c(c2)CCN(C(=O)C2CCOCC2)C3)C1 [Example 19, [6-((2S,3′S)-2-Methyl-[1,3′]bipyrrolidinyl-1′-yl)-3,4-dihydro-1H-isoquinolin-2-yl]-(tetrahydro-pyran-4-yl)-methanone]

GTPγS-35 ASSAY % Inverse Agonism (rhesus H3): −12.2%
Ki [1]: 0.15 nM
Ki (Rat H3): 0.51 nM
Compound: C[C@H]1CCCN1[C@H]1CCN(c2ccc3c(c2)CCN(C(=O)C2CCCC2)C3)C1 [Example 21, Cyclopentyl-[6-((2S,3′S)-2-methyl-[1,3′]bipyrrolidinyl-1′-yl)-3,4-dihydro-1H-isoquinolin-2-yl]-methanone]

Continued, compound first:

Compound: C[C@H]1CCCN1[C@H]1CCN(c2ccc3c(c2)CCN(C2CCOCC2)C3=O)C1 [Example 1, 6-((2S,3′S)-2-Methyl-[1,3′]bipyrrolidinyl-1′-yl)-2-(tetrahydro-pyran-4-yl)-3,4-dihydro-2H-isoquinolin-1-one]
Ki [1]: 1.2 nM
Ki (Rat H3): 3.6 nM
activity in forced-swimming test (duration of immobility) (Rats): active

Compound: C[C@H]1CCCN1[C@H]1CCN(c2ccc3c(c2)CCN(C2CCOCC2)C3)C1.O=C(O)C(F)(F)F [Example 4, 6-((2S,3′S)-2-Methyl-[1,3′]bipyrrolidinyl-1′-yl)-2-(tetrahydro-pyran-4-yl)-1,2,3,4-tetrahydro-isoquinoline hydrochloride]
GTPγS-35 ASSAY % Inverse Agonism (rhesus H3): −28.0%
Ki [1]: 0.11 nM
Ki (Rat H3): 0.05 nM

Compound: C[C@H]1CCCN1[C@H]1CCN(c2ccc3c(c2)CCN(C(=O)c2cccnc2)C3)C1 [Example 14, [6-((2S,3′S)-2-Methyl-[1,3′]bipyrrolidinyl-1′-yl)-3,4-dihydro-1H-isoquinolin-2-yl]-pyridin-3-yl-methanone]
GTPγS-35 ASSAY % Inverse Agonism (rhesus H3): −17.2%
Ki [1]: 0.28 nM
Ki (Rat H3): 2.6 nM

Compound: CCOC(=O)C1CCC(N2CCc3cc(N4CC[C@H](N5CCC[C@@H]5C)C4)ccc3C2)CC1 (stereo partly drawn) [Example 5, 4-[6-((2S,3′S)-2-Methyl-[1,3′]bipyrrolidinyl-1′-yl)-3,4-dihydro-1H-isoquinolin-2-yl]-cyclohexanecarboxylic acid ethyl ester]
GTPγS-35 ASSAY % Inverse Agonism (rhesus H3): −40.0%
Ki [1]: 0.57 nM
Ki (Rat H3): 0.59 nM
